Data on twelve compounds can be found in patent publication US8883737B2, “Methods of treating cancer” (Endocyte, Inc., priority 2010, dated 2014).

Assay [1] relates to KB tumors. As to the kind of experiment: In vivo antitumor experiments, s.c. KB tumors. Details: species or system nu/nu mice. The protocol:
(§1) Four to six week-old female nu/nu mice (Charles River, Wilmington, Mass.) or six to seven week-old female Balb/c mice (Harlan Sprague Dawley, Inc., Indianapolis, Ind.) or four to six week-old female DBA mice (Harlan Sprague Dawley, Inc., Indianapolis, Ind.) were maintained on a standard 12 h light-dark cycle and fed ad libitum with folate-deficient chow (Harlan diet #TD00434, Harlan Teklad, Madison, Wis.) for the duration of the experiment. FR-positive human nasopharyngeal KB cells, human ovarian IGR-OV1 cells, human ovarian OV90 cells and syngeneic mouse lymphocytic leukemia L1210 cells were grown continuously as a monolayer, using folate-free RPMI medium (FFRPMI) containing 10% heat-inactivated fetal calf serum (HIFCS) at 37° C. in a 5% CO2/95% air-humidified atmosphere with no antibiotics. Syngeneic FR-positive Madison 109 (M109) lung carcinoma cells were generated from M109 tumors and cultured for a few days in FFRPMI containing 10% HIFCS for a few days before implantation in mice. KB cells (1×10^6 per nu/nu mouse), M109 cells (1×10^6 per Balb/c mouse), IGR-OV1 cells (4×10^6 per nu/nu mouse) or OV90 cells (1×10^6 per nu/nu mouse) or L1210 cells (2×10^5 per DBA mouse) in 100 μL were injected in the subcutis of the dorsal medial area. Mice were divided into groups of five, and test articles were freshly prepared and injected through the lateral tail vein under sterile conditions in a volume of 200 μL of phosphate-buffered saline (PBS). Intravenous (i.v.) treatments were typically initiated when the tumors were approximately 100-200 mm^3 in volume. The mice in the control groups received no treatment. Growth of each s.c. tumor was followed by measuring the tumor three times per week during treatment and twice per week thereafter until a volume of 1500 mm^3 was reached. Tumors were measured in two perpendicular directions using Vernier calipers, and their volumes were calculated as 0.5×L×W^2, where L=measurement of longest axis in mm and W=measurement of axis perpendicular to L in mm. As a general measure of toxicity, changes in body weights were determined on the same schedule as tumor volume measurements. Survival of animals was monitored daily. Animals that were moribund (or unable to reach food or water) were euthanized by CO2 asphyxiation. All in vivo studies were performed in accordance with the American Accreditation Association of Laboratory Animal Care guidelines.
(§2) For individual tumors, a partial response (PR) was defined as volume regression >50% but with measurable tumor (>2 mm^3) remaining at all times. Complete response (CR) was defined as a disappearance of measurable tumor mass (<2 mm^3) at some point until the end of the study. A cure was defined as a CR without tumor re-growth within the study time frame.

Assay [2] deals with KB tumor cells. As to the kind of experiment: Cell growth inhibition (3H-thymidine), KB tumor cells. Format: cell-based. Particulars: Homo sapiens, FIG. 31, read-out: In vitro cytotoxicity IC50. On the procedure: Exponentially growing KB or J6456 cells were seeded in 24-well plates 24 h before treatment with drugs. […] Cells treated with vindesine, DAVLBH or doxorubicin alone were treated for 72 h. A total of five drug concentrations for each drug plus a drug-free control were evaluated. Cells were then treated with fresh medium containing ^3H-thymidine for 2 h at 37° C. Cells were further washed with PBS and treated with ice-cold 5% trichloroacetic acid. After 15 min, the trichloroacetic acid was aspirated and the cells solubilized by the addition of 0.25 N sodium hydroxide for 15 min at room temperature. Each solubilized sample was transferred to scintillation vials containing Ecolume scintillation cocktail and counted in a liquid scintillation counter. […]

For assay [3], the system named is OV90 cells. The following applies: FIG. 53, EC145 with or without Lapatinib.
Assay [4] deals with IGR-OV1 cells. The following applies: FIG. 53, EC145 with or without Lapatinib.
Assay [5] has as its system M109 tumors. As to the kind of experiment: In vivo antitumor experiments, s.c. M109 tumors. Details: species or system Balb/c mice. The following applies: five animals per group. The protocol: as §1, §2
For assay [6], the system named is OV90 cells. Briefly: cells. Particulars: Homo sapiens, OV-90.
The subject of assay [7] is RAW cells. Briefly: Cell growth inhibition, RAW cells. The following applies: FIG. 49. The assay is classed as cell-based.
In assay [8] the test system is IGR-OV1 cells. As to the kind of experiment: cells. The following applies: Homo sapiens, IGROV-1.
Where [9] appears, read: FIG. 14, M109 tumors 86-149 mm^3, EC145 alone 2 μmol/kg/injection TIW 2 weeks (1 μmol/kg in combination), Gemcitabine 40 mg/kg BIW 5 doses.
Where [10] appears, read: FIG. 16, M109 tumors 99-164 mm^3, EC145 alone 2 μmol/kg/injection TIW 2 weeks (1 μmol/kg in combination), Tarceva 100 mg/kg qd5 2 weeks.
Where [11] appears, read: FIG. 10, KB tumors 114-177 mm^3, five animals per group, EC145 1 μmol/kg/injection TIW 2 weeks, Irinotecan 40 mg/kg BIW 2 weeks.
[12] abbreviates: FIG. 12, KB tumors 108-222 mm^3, five animals per group, EC145 1 μmol/kg/injection TIW 2 weeks, Avastin 5 mg/kg BIW 2 weeks.

Several values for one entry are separate records, joined by “and”; a condition that tells them apart may be missing. Identical values can stand only once. Like-named read-outs stand apart in the source and are kept apart here.

As for `N.N.O=C([O-])C1(C(=O)[O-])CCC1.[Pt+2]` [Carboplatin, carboplatin], the partial responses in assay [1] (FIG. 1, KB tumors 109-188 mm^3, five animals per group, EC145 1 μmol/kg/injection TIW 2 weeks, Carboplatin 50 mg/kg TIW 1 week) was 3.
In assay [1] (mouse, in vivo), `N.N.[Cl][Pt][Cl]` [Cisplatin, cisplatin] displayed a partial responses of 2.
As to `CC[C@]1(O)C[C@@H]2CN(CCc3c([nH]c4ccccc34)[C@@](C(=O)OC)(c3cc4c(cc3OC)N(C)[C@H]3[C@@](O)(C(=O)NN)[C@H](O)[C@]5(CC)C=CCN6CC[C@]43[C@@H]65)C2)C1` [DAVLBH, desacetylvinblastine hydrazide], the “effect of unconjugated DAVLBH on Doxil activity” value in assay [1] (FIG. 27, DAVLBH 0.75 μmol/kg/injection TIW 2 weeks + DOXIL 5 mg/kg BIW 2 weeks) is reported as “antagonizes Doxil activity”.
A word on the IC50: it is the concentration that gives 50% inhibition. Regarding `COc1cccc2c1C(=O)c1c(O)c3c(c(O)c1C2=O)C[C@@](O)(C(=O)CO)C[C@@H]3O[C@H]1C[C@H](N)[C@H](O)[C@H](C)O1` [Doxorubicin, doxorubicin], the IC50 in assay [2] was determined as 0.034 µM.
For the compound `CC[C@]1(O)C[C@H]2CN(CCc3c([nH]c4ccccc34)[C@@](C(=O)OC)(c3cc4c(cc3OC)N(C)[C@H]3[C@@](O)(C(=O)NNC(=O)OCCSSC[C@H](NC(=O)[C@H](CC(=O)O)NC(=O)[C@H](CC(=O)O)NC(=O)[C@H](CCCNC(=N)N)NC(=O)[C@H](CC(=O)O)NC(=O)CC[C@H](NC(=O)c5ccc(NCc6cnc7nc(N)[nH]c(=O)c7n6)cc5)C(=O)O)C(=O)O)[C@H](O)[C@]5(CC)C=CCN6CC[C@]43[C@@H]65)C2)C1` [EC145], the concentration for half-maximal inhibition (IC50) in assay [3] was found to be 0.329 µM; in assay [4] it was 0.00358 µM. For the same compound, the complete responses in assay [1] (mouse, in vivo) worked out at 0; in assay [5] (setting [9]), 0; in assay [5] (setting [10]), 0. Moreover, the Cures was 2 in assay [5] (setting [9]); 0 in assay [5] (setting [10]); 3/5 and 3 in assay [5] (FIG. 40, M109 tumors, EC145 1 μmol/kg/injection TIW 2 weeks, DOXIL 4 mg/kg BIW 2 weeks). For the same compound, the partial responses in assay [5] (setting [9]) and in assay [5] (setting [10]) was 0 each time.
On to `Nc1ccn([C@@H]2O[C@H](CO)[C@@H](O)C2(F)F)c(=O)n1` [Gemcitabine, gemcitabine], for which, in assay [5] (setting [9]), the Cures result is on record as “no”, the complete responses entry is reported as “no” and the partial responses entry is given as “no”.
On to `CCc1c2c(nc3ccc(OC(=O)N4CCC(N5CCCCC5)CC4)cc13)-c1cc3c(c(=O)n1C2)COC(=O)[C@]3(O)CC` [Irinotecan, irinotecan], for which, in assay [1] (setting [11]), the Cures result was “no”, the complete responses result is “no” and the partial responses entry was “no”.
On to `CS(=O)(=O)CCNCc1ccc(-c2ccc3ncnc(Nc4ccc(OCc5cccc(F)c5)c(Cl)c4)c3c2)o1` [Lapatinib, lapatinib], for which the IC50 in assay [6] was determined as 2.46 µM; in assay [7] it was 2.85 µM; in assay [8] it was 1.75 µM.
In the case of `C#Cc1cccc(Nc2ncnc3cc(OCCOC)c(OCCOC)cc23)c1` [Tarceva, erlotinib], in assay [5] (setting [10]), the Cures entry is reported as “no”, the complete responses result is on record as “no” and the partial responses entry is “no”.
For the compound `CC[C@@]1(O)C(=O)OCc2c1cc1n(c2=O)Cc2cc3c(CN(C)C)c(O)ccc3nc2-1` [Topotecan, topotecan], in assay [1] (FIG. 5, KB tumors 144-204 mm^3, five animals per group, EC145 1 μmol/kg/injection TIW 2 weeks, Topotecan 5 mg/kg TIW 2 weeks), the Cures result was “no”.
As to `CC[C@]1(O)C[C@@H]2CN(CCc3c([nH]c4ccccc34)[C@@](C(=O)OC)(c3cc4c(cc3OC)N(C)[C@H]3[C@@](O)(C(N)=O)[C@H](O)[C@]5(CC)C=CCN6CC[C@]43[C@@H]65)C2)C1` [vindesine], in assay [1] (FIG. 25/26, vindesine 1 mg/kg/injection TIW 2 weeks + DOXIL 5 mg/kg BIW 2 weeks), the “effect of unconjugated vindesine on Doxil activity” value is given as “antagonizes Doxil activity”.
For bevacizumab [Avastin], in assay [1] (setting [12]), the Cures result was “no”, the complete responses entry is reported as “no” and the partial responses entry is recorded as “no”.
